Paper PMC4840125, “[^18F]tetrafluoroborate as a PET tracer for the sodium/iodide symporter: the importance of specific activity” (EJNMMI Research, 2016)

Target: T1, human sodium/iodide symporter (hNIS) (Homo sapiens, UniProt Q92911)
T1 construct: gene SLC5A5; hNIS stably transfected in HCT116 human colon carcinoma cells (HCT116-hNIS-C19)
T1 sequence (Q92911 1-643): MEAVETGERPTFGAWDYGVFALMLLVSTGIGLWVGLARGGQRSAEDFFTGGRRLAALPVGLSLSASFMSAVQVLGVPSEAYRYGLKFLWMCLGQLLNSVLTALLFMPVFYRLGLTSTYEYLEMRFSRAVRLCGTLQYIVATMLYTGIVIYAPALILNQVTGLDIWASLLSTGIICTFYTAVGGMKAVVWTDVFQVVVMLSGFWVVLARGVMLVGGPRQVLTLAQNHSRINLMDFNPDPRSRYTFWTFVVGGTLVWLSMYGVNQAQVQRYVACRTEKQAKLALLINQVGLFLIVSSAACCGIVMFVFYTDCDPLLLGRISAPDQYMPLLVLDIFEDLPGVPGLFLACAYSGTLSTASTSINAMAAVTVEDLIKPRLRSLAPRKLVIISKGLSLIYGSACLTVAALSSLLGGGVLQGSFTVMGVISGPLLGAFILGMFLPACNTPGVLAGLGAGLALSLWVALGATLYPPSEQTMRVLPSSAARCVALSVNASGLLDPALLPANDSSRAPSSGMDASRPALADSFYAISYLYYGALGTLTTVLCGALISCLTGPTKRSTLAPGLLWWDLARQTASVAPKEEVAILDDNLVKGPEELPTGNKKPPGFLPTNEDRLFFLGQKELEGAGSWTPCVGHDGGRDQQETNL
Experiment: inhibition of […]BF4- uptake in hNIS-transfected cells, gamma counting
Format: cell-based

## F[B-](F)(F)F [[19F]BF4-]
  IC50: 4.7 µM
